# Laboratory results: patent publication US20250041309A1 (ZHENAO JINYINHUA PHARMACEUTICAL, priority 2021, published 2025)
# Several values for one entry are separate records, joined by “and”; a condition that tells them apart may be missing. Equal entries are not always repeated. Structures can show the parent of a compound that is named as a salt.
# Experiments:
# Format in all cases: in vivo, SD rats
# [1] = system: ischemic stroke model rats; assay: Neurological function (behavioral) score, ischemic stroke model rats, intravenous administration (Example 22); parameters: scale not given here; conditions: 10 mg/kg iv qd 7 d, x ± s, n = 10
# Excerpt: (§1) On the day of the experiment, the rat was anesthetized with isoflurane gas and placed in a supine position for fixation. The skin was cut along the midline of the neck to expose the right common carotid artery. The nerves and fascia around the blood vessels from the common carotid artery bifurcation to the base of the skull were carefully removed, and the external and internal carotid arteries were separated sequentially. The MCAO suture was inserted from the free end of the external carotid artery, and the nylon suture was introduced into the internal carotid artery from the distal end of the external carotid artery. It was inserted into the Willis ring of the middle cerebral artery to effectively block the middle cerebral artery. The length of the inserted suture was 18-20 mm away from the bifurcation of the common carotid artery. Then the free end of the external carotid artery was ligated along with the endovascular suture to prevent bleeding. […] Animals were kept in cages. After 2 hours of embolization, then reperfusion, according to the scoring criteria in the attached table, the degree of neurological damage in the animals was scored using a blind method. Those with significant neurological deficits (>8 points) were considered successful in modeling. • ? Grouping and administration The animals successfully modeled were randomly divided into three groups based on their scores, namely the model control group, compound 1 AD group ([…] citrate group) 10 mg/kg, and compound 2 XD group (Sildenafil citrate group) 10 mg/kg, with 10 animals in each group. […] The endpoint of the experiment was 14 days after administration, and the dosage is detailed in the table below. This experiment was administered intravenously with a dosage of 10 mg/kg and a volume of 5 mL/kg, once per day for consecutive 7 days. Score before treatment, 3 days after treatment, 7 days after treatment, and 14 days after treatment.
# [2] = Weight monitoring of MCAO rats, oral administration (Example 21); conditions: gavage 4 mg/kg twice per day; for Weight D 0: D 0, group mean; for Weight D 4: D 4, group mean; for Weight D 7: D 7, group mean; for Weight D 11: D 11, group mean; for Weight D 14: D 14, group mean; for Weight D 18: D 18, group mean; for Weight D 21: D 21, group mean; for Weight D 25: D 25, group mean; for Weight D 28: D 28, group mean
# Experimental: Administration route: gavage administration; Dosage: 4 mg/kg body weight, twice per day; Administration time: gavage administration twice in the morning and evening per day (administered immediately after modeling). A rat model of middle cerebral artery ischemia/reperfusion (MCAO/R) was created using the suture method. […] After surgical exposure of the carotid artery, suture was performed without ischemia-reperfusion injury; • (3) Treatment group 1: MCAO model+[…] citrate drug treatment group; • (4) Treatment group 2: MCAO model+Sildenafil citrate drug treatment group; […]
# MCAO rats [3] = assay: Morris water maze experiment in MCAO rats, oral administration (Example 21); conditions: gavage 4 mg/kg twice per day, 14 days water maze test
# Experimental: Morris water maze experiment: testing the learning and memory abilities of rats.
# The Morris water maze experiment is conducted continuously for 6 days each time, with training conducted for the first 5 days and testing conducted on 6th day.
# For each of the tests, the rats were trained four times a day at a fixed time period for the first five days (once in the first, second, third, and fourth quadrants respectively). At the beginning of the training, a platform was placed in the first quadrant, and from any starting points of the four quadrants on the pool wall, the rats were placed into the pool, facing the pool wall. The camera system records the time when the rats found the platform and their swimming path. Four training sessions involved placing rats into water from four different starting points. If the rat finds the platform or cannot find it within 60 seconds, the experimenter will guide it to the platform, rest on the platform for 10 seconds, and then proceed to the next experiment.
# The rats were removed from the platform, dried with a soft cloth, and put back into the cage. Afterwards, the next experiment on the rat was performed until the numbered animals had finished swimming, and then the next set of experiments was conducted.
# This experiment was conducted on the 14th day after administration. […]
# [4] = system: ischemic stroke model rats; assay: Cerebral infarction range (TTC), ischemic stroke model rats, intravenous administration (Example 22); conditions: 10 mg/kg iv qd 7 d
# Excerpt: as §1, with “cages.” for “cages. After 2 hours of embolization, then reperfusion, according to the scoring criteria in the attached table, the degree of neurological damage in the animals was scored using a blind method. Those with significant neurological deficits (>8 points) were considered successful in modeling. • ? Grouping and administration”, “At the end of the experiment, the brain tissue of the rats was collected by bloodletting” for “Score before treatment, 3 days after treatment, 7 days after treatment,”, “frozen in a -20° C. freezer, then are sliced with a thickness of 2 mm per slice. The brain tissue slices were placed in a 2% red tetrazolium (TTC) solution and incubated at 37° C. for 5 minutes. The infarcted tissue appeared white, while the non-infarcted tissue appeared red.” for “14 days after treatment.”
# MCAO rats [5] = assay: Neurological deficits (mNSS) score in MCAO rats, oral administration (Example 21); parameters: scale not given here; conditions: gavage 4 mg/kg twice per day, one value per rat (30 per group)
# Experimental: (§2) Administration route: gavage administration;
# Dosage: 4 mg/kg body weight, twice per day;
# Administration time: gavage administration twice in the morning and evening per day (administered immediately after modeling).
# A rat model of middle cerebral artery ischemia/reperfusion (MCAO/R) was created using the suture method.
# Scores were evaluated using the mNSS rat neurological deficit scoring method. The neurological deficits of the experimental rats were evaluated on 14 days after modeling. • ?
# MCAO rats [6] = assay: Neurological function (behavioral) score in MCAO rats, oral administration (Example 23); conditions: gavage 8 mg/kg twice a day; after 3, 7 and 14 days administration
# Experimental: as §2
# (§3) Dosage: 8 mg/kg body weight, twice a day;
# (§4) Administration time: gavage administration twice a day in the morning and evening (administered immediately after modeling).
# (§5) A rat model of middle cerebral artery ischemia/reperfusion (MCAO/R) was created using suture-occluded method.
# After 2 hours of embolization, then reperfusion, according to the scoring criteria in the attached table, the degree of neurological damage in the animals was scored using a blind method. Those with significant neurological deficits (>8 points) were considered successful in modeling.
# (§6) The successfully modeled rats were randomly divided into 4 groups based on their scores, with an average of 20 rats in each group.
# Neurological function score: evaluation was conducted before treatment, 3 days, 7 days, and 14 days after treatment.
# MCAO rats [7] = assay: Cerebral infarction range (TTC) in MCAO rats, oral administration (Example 23); conditions: gavage 8 mg/kg*2, after 14 days
# Experimental: as §2, §3, §4, §5, §6
# At the end of the experiment, the brain tissue of the rats was collected by bloodletting and frozen in a −20° C. freezer, and then is sliced into a thickness of 2 mm per slice. The brain tissue slices were placed in a 2% red tetrazolium (TTC) solution and incubated at 37° C. for 5 minutes. The infarcted tissue appeared white, while the non-infarcted tissue appeared red. Image J software was used to measure the area of cerebral infarction and the percentage of infarct area to the total brain area was calculated.
smiles,measurement,setting,value
CCCc1nn(C)c2c(=O)[nH]c(-c3cc(S(=O)(=O)N4CCN(C)CC4)ccc3OCC)nc12 [Sildenafil citrate],"behavioral score, 3 days after medication",[1]; 3 days after medication,7.4 ± 1.4
same,"behavioral score, 7 days after medication",[1]; 7 days after medication,6.1 ± 1.7
same,"behavioral score, 14 days after medication",[1]; 14 days after medication,4.9 ± 1.7
same,"behavioral score, Before medication",[1]; before medication,9.6 ± 0.5
same,Weight D 0,[2],297.7 g
same,Weight D 4,[2],251.4 g
same,Weight D 7,[2],249.0 g
same,Weight D 11,[2],266.9 g
same,Weight D 14,[2],282.4 g
same,Weight D 18,[2],307.6 g
same,Weight D 21,[2],318.3 g
same,Weight D 25,[2],339.6 g
same,Weight D 28,[2],345.9 g
same,"average latency period, Morris water maze",MCAO rats [3],16.88 s
same,Total cerebral infarction %,"[4]; 14 days after administration, x ± s, n = 10",21.5 ± 8.6%
same,Improvement rate % of cerebral infarction range,"[4]; 14 days, versus model control group",14.0%
same,"Score for neurological deficits (mNSS) after 14 days of administration, individual rats",MCAO rats [5],8 (10×) and 9 (8×) and 7 (7×) and 10 (3×) and 5 and 6
"CCCc1nn(C)c2c(=O)[nH]c(-c3cc(S(=O)(=O)N4C[C@@H](C)N[C@@H](C)C4)ccc3OCC)nc12 [Aildenafil, 1-[3-(6,7-dihydro-1-methyl-7-oxy-3-n-propyl-1H-pyrazolo[4,3-d]pyrimidin-5-yl)-4-ethoxybenzenesulfonyl]-3,5-dimethylpiperazine]",Weight D 0,[2],303.9 g
same,Weight D 4,[2],251.4 g
same,Weight D 7,[2],253.8 g
same,Weight D 11,[2],274.1 g
same,Weight D 14,[2],287.2 g
same,Weight D 18,[2],312.0 g
same,Weight D 21,[2],321.3 g
same,Weight D 25,[2],341.9 g
same,Weight D 28,[2],345.0 g
same,behavioral scores compared with the model control group,MCAO rats [6],significant improvement
same,Improvement rate % of cerebral infarction range,MCAO rats [7]; versus model control group,31.5%
same,Total cerebral infarction %,"MCAO rats [7]; x ± s, n = 20",17.0 ± 6.7 %
same,"average latency period, Morris water maze",MCAO rats [3],8.93 s
same,"Score for neurological deficits (mNSS) after 14 days of administration, individual rats",MCAO rats [5],7 (7×) and 5 (3×) and 6 (7×) and 8 (6×) and 9 (4×) and 10 (2×)
